Source: patent publication US8163479B2, “Specific substrates for O6-alkylguanine-DNA alkyltransferase” (Ecole Polytechnique Federale de Lausanne, priority 2004, dated 2012)
Numbering of substitutions follows the chain as printed.

Key:
[1] = biological target: T1, wild type hAGT-GST fusion protein (Homo sapiens, UniProt P16455); experiment: In vitro competition CPTG/BGBT, both proteins in one solution; format: biochemical; settings: both substrates CPTG and BGBT 5 μM, 30 min
T1 sequence (P16455 1-207): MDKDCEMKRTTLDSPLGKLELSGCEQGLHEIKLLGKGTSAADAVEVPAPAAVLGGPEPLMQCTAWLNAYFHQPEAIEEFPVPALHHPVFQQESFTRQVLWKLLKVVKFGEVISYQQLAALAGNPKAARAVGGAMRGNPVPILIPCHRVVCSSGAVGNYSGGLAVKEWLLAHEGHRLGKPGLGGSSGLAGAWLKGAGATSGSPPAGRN
Description: (§1) Detection of the AGTM-BGBT complex with luminescent peroxidase substrate is as described for FIG. 2.
(§2) The reaction is quenched by addition of 2×SDS buffer and placed 2 min at 95° C. Samples are run on a 12% acrylamide gel and analysed by Western blotting.
(§3) In comparing the reaction of AGTM and wild type hAGT, a high specificity of CPTG toward hAGT is observed. At the same concentration (both substrates 5 μM final concentration), 95% of wild type AGT has reacted with CPTG versus only 5% of AGTM.

[2] = biological target: T2, AGTM-6×His fusion protein (Homo sapiens, UniProt P16455, A127T/C150N/C62A/G131K/G132T/K125A/M134L/N157G/Q115S/Q116H/R128A/R135S/S151I/S152N/S159E); experiment: as above; format: biochemical; settings: both substrates CPTG and BGBT 5 μM, 30 min
T2 construct: a truncation after codon 182 into the mutant AGT gene; 6xHis
T2 sequence (P16455 1-182 C62A/Q115S/Q116H/K125A/A127T/R128A/G131K/G132T/M134L/R135S/C150N/S151I/S152N/N157G/S159E): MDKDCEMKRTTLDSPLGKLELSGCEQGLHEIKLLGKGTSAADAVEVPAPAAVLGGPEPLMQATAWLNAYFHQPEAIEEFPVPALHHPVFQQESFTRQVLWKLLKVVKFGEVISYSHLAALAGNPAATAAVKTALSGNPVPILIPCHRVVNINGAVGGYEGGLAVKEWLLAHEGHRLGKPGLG
Description: as §1, §2, §3

wild type hAGT = biological target: T3, wild type hAGT (Homo sapiens, UniProt P16455); experiment: In vitro competition between CPTG and BGBT, separate incubation; format: biochemical; settings: CPTG 20 times higher than BGBT (0.5 μM), after 45 minutes
T3 sequence (P16455 1-207): T1 sequence (P16455 1-207)
Description: as §2

Mutant AGT (AGTM) = biological target: T4, Mutant AGT (AGTM) (Homo sapiens, UniProt P16455, A127T/C150N/C62A/G131K/G132T/K125A/M134L/N157G/Q115S/Q116H/R128A/R135S/S151I/S152N/S159E); experiment: as above; format: biochemical; settings: CPTG 20 times higher than BGBT (0.5 μM), after 45 minutes
T4 construct: a truncation after codon 182 into the mutant AGT gene
T4 sequence (P16455 1-182 C62A/Q115S/Q116H/K125A/A127T/R128A/G131K/G132T/M134L/R135S/C150N/S151I/S152N/N157G/S159E): T2 sequence (P16455 1-182 C62A/Q115S/Q116H/K125A/A127T/R128A/G131K/G132T/M134L/R135S/C150N/S151I/S152N/N157G/S159E)
Description: as §2

AGTM (mutant AGT) = biological target: T5, AGTM (mutant AGT) (Homo sapiens, UniProt P16455, A127T/C150N/C62A/G131K/G132T/K125A/M134L/N157G/Q115S/Q116H/R128A/R135S/S151I/S152N/S159E); experiment: Reaction rate of AGT mutant with substrate, BGBT capture and Western blot; format: biochemical
T5 construct: a truncation after codon 182 into the mutant AGT gene; 6xHis
T5 sequence (P16455 1-182 C62A/Q115S/Q116H/K125A/A127T/R128A/G131K/G132T/M134L/R135S/C150N/S151I/S152N/N157G/S159E): T2 sequence (P16455 1-182 C62A/Q115S/Q116H/K125A/A127T/R128A/G131K/G132T/M134L/R135S/C150N/S151I/S152N/N157G/S159E)
Text: Proteins are then denatured with SDS and heat. Samples are subjected to SDS-PAGE and Western blot analysis. The intensity of the corresponding bands is detected by chemiluminescence stain.
A second AGT mutant (“AGTM”) containing the mutations Cys62Ala, Gln115Ser, Gln116His, Lys125Ala, Ala127Thr, Arg128Ala, Gly131Lys, Gly132Thr, Met134Leu, Arg135Ser, Cys150Asn, Ser15111e, Ser152Asn, Asn157Gly, Ser159G1u, and truncation at 182 is derived from the mentioned above AGT mutant by subsequent introduction of further mutations and a truncation after codon 182 into the mutant AGT gene. […] The GST-fusion protein is expressed and purified as well.
AGTM (1 μM final concentration) is incubated with N^9-cyclopentyl-O^6-(4-bromothiophen-2-yl)-guanine (18, CPTG) (10 μM in 1% DMSO final concentration) in reaction buffer (50 mM HEPES, 1 mM DTT, […] BSA, pH 7.3) at 24° C. […] The reaction is quenched by addition of SDS-Laemmli buffer and heating for 2 min at 95° C. Samples are run on a 12% acrylamide gel and analysed by Western blotting.

[3] = biological target: T6, AGT (Gly160Trp)-NLS3 fusion protein in the nucleus of CHO cells (Homo sapiens, UniProt P16455, G160W); experiment: Intracellular competition of two AGT mutants with two substrates in CHO cells; format: cell-based; settings: 5 μM CPTG 10 min, then 5 μM BG-AcFL 20 min
T6 construct: expressed in transfected cells; host or cells: CHO cells, transient expression
T6 sequence (P16455 1-207 G160W): T1 sequence (P16455 1-207) with G160W
Text: (§4) The mutant AGTM (Example 47) is amplified with the suitable primers and cloned between the NheI and BglII sites of the vector pEGFP-Nuc. The yeast β-galactosidase gene is likewise amplified and subcloned into this vector via BglII/BamHI to result in a vector with an AGT-β-Gal fusion gene. The wild type hAGT gene is amplified and cloned via NheI/BglII into pEGFP-Nuc to result in an AGT-NLS3 fusion gene coding for the mutation Gly160Trp.

[4] = biological target: T7, AGTM-β-galactosidase fusion protein in CHO cells (Homo sapiens, UniProt P16455, A127T/C150N/C62A/G131K/G132T/K125A/M134L/N157G/Q115S/Q116H/R128A/R135S/S151I/S152N/S159E); experiment: as above; format: cell-based; settings: 5 μM CPTG 10 min, then 5 μM BG-AcFL 20 min
T7 construct: a truncation after codon 182 into the mutant AGT gene; expressed in transfected cells; host or cells: CHO cells, transient expression
T7 sequence (P16455 1-182 C62A/Q115S/Q116H/K125A/A127T/R128A/G131K/G132T/M134L/R135S/C150N/S151I/S152N/N157G/S159E): T2 sequence (P16455 1-182 C62A/Q115S/Q116H/K125A/A127T/R128A/G131K/G132T/M134L/R135S/C150N/S151I/S152N/N157G/S159E)
Text: as §4

AGTM or AGT21 = experiment: One-pot labeling and separation with streptavidin magnetic beads; format: biochemical, human; settings: 5 μM protein, 10 μM substrate, 1 hour; fluorescence 490/535 nm in supernatant
Description: In other experiments, purified AGTM or AGT21 (Example 47) in a protein concentration of 5 μM are incubated with 10 μM N-[4-(2-amino-8-(3-(N-(+)-biotinyl-6-aminocaproyl)-aminopropyl)-9H-purin-6-yloxymethyl)-benzyl]-fluoresceine-5(6)-carboxamide (52, Example 34) in 50 μl buffer containing 100 mM NaCl, 50 mM Tris, pH 8.0, 0.1% Tween, 1 mM DTT at room temperature. After 1 hour, streptavidin coated magnetic beads (Magnabind Streptavidin, Pierce) with a capacity to bind at least 1 nmol biotin are added and the incubation time and magnetic separation from the supernatant containing fluorescein-labeled protein are done according to manufacturer's instructions for use. The amount of protein in solution before and after the treatment with magnetic beads is determined by Bradford assay. The loss of protein is less than 30%. The labeling efficiency is determined by measuring the fluorescence intensity using a Victor2 microplate reader (Perkin Elmer) at 490 nm excitation and 535 nm emission in the supernatant after removal of the unreacted substrate and released product by binding to the beads and magnetic separation. The labeling efficiency is at least 20%.

AGTM = biological target: T8, AGTM (Homo sapiens, UniProt P16455, A127T/C150N/C62A/G131K/G132T/K125A/M134L/N157G/Q115S/Q116H/R128A/R135S/S151I/S152N/S159E); experiment: Labeling with substrate pre-immobilized on streptavidin magnetic beads; format: biochemical; settings: AGTM 50 μM, 20 h
T8 construct: a truncation after codon 182 into the mutant AGT gene
T8 sequence (P16455 1-182 C62A/Q115S/Q116H/K125A/A127T/R128A/G131K/G132T/M134L/R135S/C150N/S151I/S152N/N157G/S159E): T2 sequence (P16455 1-182 C62A/Q115S/Q116H/K125A/A127T/R128A/G131K/G132T/M134L/R135S/C150N/S151I/S152N/N157G/S159E)
Description: In a further experiment, wherein the substrate is pre-immobilized, streptavidin coated magnetic beads (Magnabind Streptavidin, Pierce) with a capacity to bind […] biotin per ml are incubated with twofold excess of compound 52 (as above) in buffer containing 100 mM NaCl, 50 mM Tris, pH 8.0, 0.1% Tween at room temperature to immobilize the substrate to the beads. The incubation time and magnetic separation from the supernatant are done according to manufacturer's instructions for use. Unbound substrate is removed with buffer by 3 subsequent washing steps. AGTM at a protein concentration of 50 μM is incubated with these substrate-modified beads in 50 μl buffer containing 100 mM NaCl, 50 mM Tris, pH 8.0, 0.1% Tween, 1 mM DTT at room temperature. After 20 h, the beads are separated from the supernatant containing fluorescein-labeled protein. The amount of protein in solution before and after the treatment with magnetic beads is determined by Bradford assay.

Substance	wild type AGT reacted with CPTG [1]	AGTM reacted with CPTG [2]	wild type AGT quenched by CPTG (wild type hAGT)	mutant AGTM still active (Mutant AGT (AGTM))	activity ratio of the two substrates BGBT/CPTG (AGTM (mutant AGT); AGTM)	second order rate constant k2 (AGTM (mutant AGT); AGTM 1 μM, substrate 10 μM, 24° C., pH 7.3)	reaction with CPTG inside cells [3]	reaction with CPTG inside cells [4]	labeling efficiency (AGTM or AGT21)	labeling efficiency (AGTM)	loss of protein (AGTM; Bradford assay)
N^9-Cyclopentyl-O^6-(4-bromothiophen-2-yl)-guanine [CPTG]	95%	5%	95%	87%	at least 25	92.5 M⁻¹ s⁻¹	efficiently reacts with CPTG	does not react with CPTG			
N-[4-(2-Amino-8-(3-(N-(+)-biotinyl-6-aminocaproyl)-aminopropyl)-9H-purin-6-yloxymethyl)-benzyl]-fluoresceine-5(6)-carboxamide [compound 52]									at least 20%	at least 20%	less than 30%
